Experimental data from patent US10918623B2, “Methods of treating influenza” (Biotron Limited, priority 2017, dated 2021).

Key:
Influenza A (H3N2) = type: cell-based
MDCK cells = details: dog
in vitro = details: dog
SHIV-1PND2 = type: cell-based
[1] = tested on: SHIV-1SCVpu (ion channel sequence of HIV-1 Vpu); type: cell-based
[2] = biological target: M2 viroporin of influenza A (Influenza A virus, UniProt P06821); details: cited from earlier work
[3] = tested on: PR8 wild-type influenza A virus; assay: microbe, parasite or virus in culture; type: cell-based; details: PR8, MDCK
Influenza A (H1N1) = type: cell-based
influenza = details: human, in vivo; cited from earlier work

M2 viroporin of influenza A, sequence (P06821 whole entry, looked up): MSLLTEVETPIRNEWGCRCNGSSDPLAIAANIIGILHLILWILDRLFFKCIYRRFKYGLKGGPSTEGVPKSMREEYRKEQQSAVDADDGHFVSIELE

Row | Compound | Comments (Influenza A (H3N2)) | Toxic effects (no toxic effects up to) (MDCK cells) [µM] | CC50 (in vitro) [µM] | Virus replication (SHIV-1PND2) | Virus released into the culture supernatant as measured by viral p27 protein [1] | Activity against the M2 viroporin of influenza A [2] | EC50 [3] [µM] | EC90 [3] [µM] | Comments (Influenza A (H1N1)) | Reduction of time to alleviation of symptoms of influenza (influenza) [h]
1 | Cn1cc(-c2cccc3cc(C(=O)NC(=N)N)ccc23)cn1 [BIT225, N-carbamimidoyl-5-(1-methyl-1H-pyrazol-4-yl)-2-naphthamide] | Active | > 100 | 32 | does not significantly reduce virus replication | reduced virus released | only limited activity | ~10 | 12 | Active | 
2 | CCOC(=O)C1=C[C@@H](OC(CC)CC)[C@H](NC(C)=O)[C@@H](N)C1 [oseltamivir] |  |  |  |  |  |  |  |  |  | 16.8
